# Measured values taken from patent US20260317310A1, “BENZO SIX-MEMBERED HETEROCYCLIC GSPT1 PROTEIN DEGRADATION AGENT AND USE THEREOF” (China Pharmaceutical University, priority 2023, published 2026).
# “Also recorded” adds a separate entry of the source.
# Experiments:
# [1] = system: KG-1 cells; experiment: Antiproliferative activity against KG-1 cells (CCK8, 72 h); format: cell-based; settings: Homo sapiens
# Description: KG-1 cells in the logarithmic growth phase were diluted in a culture medium (RPMI+10% FBS) and plated onto 96-well plates at 5000 cells/well, and the plates were incubated in an incubator at 37° C. with 5% CO2 for 24 hours. 10 mM stock solutions of the test compounds of the present disclosure in DMSO were prepared and diluted with the culture medium to set 9 concentration gradients. Three replicate wells were set for each concentration. After compound addition, the plates were incubated in an incubator at 37° C. with 5% CO2 for 72 hours. The cell proliferation was assessed using the CCK8 method. The cell growth inhibition IC50 values of the compounds were determined using an enzyme labeling method. The IC50 values were calculated using GraphPad Prism 7 software.
# The antiproliferative activity of the compounds against KG-1 cells is shown in Table 2, where A represents IC50<1 nM, B represents 1<IC50<10 nM, C represents 10 nM≤IC50<100 nM, D represents 100 nM≤IC50<1000 nM, and E represents IC50≥1000 nM.
# [2] = In vivo pharmacokinetic study in rats (IV and PO); parameters: species or system rat (SD); settings: rat; for bioavailability: plasma, PO 10 mg/kg (IV 2 mg/kg); for clearance rate relative to CC-90009 / half-life relative to CC-90009 / initial plasma concentration relative to CC-90009 / plasma drug exposure level relative to CC-90009: IV
# Description: Sample collection and preparation: After SPF SD rats (male, 210-230 g, 42-48 days, RILD Liver) in a good growth state were dosed intravenously at 2 mg/kg and orally at 10 mg/kg, blood samples were collected via the orbit at different blood collection time points and transferred to centrifuge tubes containing an anticoagulant; the intravenous blood collection time points were 0.08 hours, 0.25 hours, 0.5 hours, 1 hour, 2 hours, 4 hours, 6 hours, 8 hours, and 24 hours, and the oral blood collection time points were 0.25 hours, 0.5 hours, 1 hour, 2 hours, 4 hours, 6 hours, 8 hours, and 24 hours. The blood samples were immediately centrifuged at 4° C. and 8000 rpm for 10 minutes, and the plasma was collected and stored in an ultra-low-temperature freezer at −80° C. until it was analyzed by LC-MS/MS.
# Pharmacokinetic data analysis: Pharmacokinetic parameters of the compounds were calculated using pharmacokinetic software in a non-compartmental model. The peak plasma concentration (Cmax) and the time to reach the peak plasma concentration (Tmax) were taken as observation values. Parameters such as the half-life T1/2, the areas under the plasma concentration-time curve AUClast and AUCinf, the apparent volume of distribution Vss, and the clearance rate CL were determined through regression analysis of the linear terminal portion of the logarithmic plasma concentration-time curve and the linear trapezoidal rule.
# [3] = system: MV411 xenograft; experiment: In vivo pharmacodynamic study in MV411 acute myeloid leukemia xenograft mouse model; parameters: species or system human leukemia cells in BABL/c Nude mouse
# Description: (§1) The human leukemia cells MV411 (Cell Bank, Chinese Academy of Sciences) used in this experiment were cultured in an IMDM culture medium supplemented with 10% FBS in an incubator containing CO2 at 37° C. Before the cells were continuously sub-cultured to the tenth generation, MV411 cells in the logarithmic growth phase were used, and the cell concentration was adjusted to 1×10^8 cells/mL with a serum-free culture medium. Each BABL/c Nude mouse (Jiangsu GemPharmatech Co., Ltd., female, 4-6 weeks old, 14-16 g) was inoculated with […] of the cell suspension by subcutaneous injection on the right dorsal side (near the axilla) under sterile conditions. When the mean tumor volume of the tumor-bearing mice reached approximately 100 mm^3, the mice were randomly divided into groups, with the tumor volume in each group being roughly the same. The day of grouping and administration was defined as day 0. The animals in each treatment group were given a compound once daily by oral gavage at 15 mg/kg, 30 mg/kg, or 60 mg/kg. The body weight and tumor volume of the animals were measured every other day.
# Experimental indicator: The anti-tumor efficacy of the compounds was evaluated using the relative tumor growth inhibition rate (TGI). Tumor weight TGI (%)={1−[(final average tumor weight of experimental group)/(final average tumor weight of control group of tumor-bearing mice without administration)]}×100%. Tumor volume TGI (%)=[1−relative tumor volume of experimental group/relative tumor volume of control group of tumor-bearing mice without administration]×100%.
# [4] = system: 22RV1 xenograft; experiment: In vivo pharmacodynamic study in 22RV1 prostate cancer xenograft mouse model; parameters: species or system 22RV1 cells in BABL/c Nude mouse
# Description: The 22RV1 cells (Cell Bank, Chinese Academy of Sciences) used in this experiment were cultured in a 1640 culture medium supplemented with 10% FBS in an incubator containing CO2 at 37° C. Before the cells were continuously sub-cultured to the tenth generation, 22RV1 cells in the logarithmic growth phase were used, and the cell concentration was adjusted to 5×10^7 cells/mL with a serum-free culture medium. Each BABL/c Nude mouse was inoculated with […] of the cell suspension by subcutaneous injection on the right dorsal side (near the axilla) under sterile conditions. When the mean tumor volume of the tumor-bearing mice reached approximately 50-100 mm^3, the mice were randomly divided into 4 groups of 8, with the tumor volume in each group being roughly the same. The day of grouping and administration was defined as day 0. The animals in each treatment group were given a compound once daily by oral gavage at 60 mg/kg.
# The body weight and tumor volume of the animals were measured every other day.
# Experimental indicator: The anti-tumor efficacy of the compounds was evaluated using the relative tumor growth inhibition rate (TGI). Tumor weight TGI (%)={1−[(final average tumor weight of experimental group)/(final average tumor weight of control group of tumor-bearing mice without administration)]}×100%.
# [5] = Body weight in MV411 xenograft mice; format: in vivo, BABL/c Nude mouse; settings: A-10 15, 30, 60 mg/kg, A-42 60 mg/kg, oral
# Description: as §1
# [6] = target: T1, GSPT1 (Homo sapiens, UniProt P15170); experiment: Degradation of GSPT1 in MV4-11 cells (FIG. 1C, 1D); format: cell-based; parameters: endogenous in cells; settings: FIGS. 1 and 2
# [7] = target: T1, GSPT1; experiment: Degradation of GSPT1 in KG-1 cells (immunoblot, 200 nM, 4 h); format: cell-based; parameters: endogenous in cells; host or cells: KG-1; settings: FIGS. 1 and 2
# Description: KG-1 cells (ATCC) were grown in an IMDM culture medium (containing 20% FBS). After centrifugation and counting, the cell concentration was adjusted. The cells were plated onto 6-well plates at 10^6 cells/well, with 1350 μL per well. 150 μL of DMSO and the test compounds of the present disclosure (compound concentration: 200 nM) were added. The plates were incubated in an incubator at 37° C. with 5% CO2 for 4 hours. The cells were centrifuged, and the culture medium was discarded. PBS was added to wash the cells and then discarded. Whole cell lysates were prepared using a protease inhibitor cocktail (100×, Fude Biological), a protein phosphatase inhibitor cocktail (100×, Fude Biological), SuperNuclease (Beyotime), and a high-intensity RIPA lysis buffer (Thermo Fisher) and placed on ice for 30 minutes. After centrifugation, the cell debris precipitates were discarded, and the whole cell lysate supernatants were collected and transferred to new centrifuge tubes. After a BCA protein assay, samples were prepared using a 5× loading buffer (Thermo Fisher). […] Signals were detected using a MINICHEMI™ imaging system. […]
# [8] = target: T1, GSPT1; experiment: Time-dependent degradation of GSPT1 in AML cells (FIG. 2); format: cell-based; parameters: KG-1 cells (ATCC) were grown in an IMDM culture medium; endogenous in cells; host or cells: KG-1
# [9] = Metabolic stability in in vitro rat liver microsomes; format: in vitro ADME; settings: NADPH, 37° C.
# Text: RLMs were purchased from RILD Liver.
# [10] = 60 mg/kg once daily oral gavage
# T1 sequence (P15170 whole entry): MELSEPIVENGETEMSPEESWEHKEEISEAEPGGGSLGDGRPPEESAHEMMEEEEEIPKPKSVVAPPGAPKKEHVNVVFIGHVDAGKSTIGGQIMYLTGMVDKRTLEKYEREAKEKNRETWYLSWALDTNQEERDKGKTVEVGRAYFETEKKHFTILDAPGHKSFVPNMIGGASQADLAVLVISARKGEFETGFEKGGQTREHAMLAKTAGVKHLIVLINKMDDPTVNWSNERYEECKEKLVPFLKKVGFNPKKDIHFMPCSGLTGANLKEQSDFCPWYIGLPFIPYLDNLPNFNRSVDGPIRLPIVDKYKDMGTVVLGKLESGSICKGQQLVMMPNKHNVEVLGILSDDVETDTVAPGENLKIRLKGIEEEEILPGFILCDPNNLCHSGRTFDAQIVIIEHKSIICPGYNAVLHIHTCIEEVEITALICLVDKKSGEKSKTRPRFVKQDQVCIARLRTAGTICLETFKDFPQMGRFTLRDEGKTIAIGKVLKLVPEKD
SMILES,bioavailability [2],clearance rate relative to CC-90009 ([2]; compared to CC-90009),half-life relative to CC-90009 ([2]; compared to CC-90009),initial plasma concentration relative to CC-90009 ([2]; compared to CC-90009),plasma drug exposure level relative to CC-90009 ([2]; compared to CC-90009),"exposure level relative to CC-90009 ([2]; oral, compared to CC-90009)",weight loss in mice [5],dependence of GSPT1 degradation on concentration and time [6],dependence of GSPT1 degradation on concentration and time [7],further results
Cc1cc2c(cc1Cl)C=C(C(=O)NCc1ccc3c(c1)CN(C1CCC(=O)NC1=O)C3=O)CO2 (centres unmarked) [Compound A-28],,,,,,,,,,IC50 [1]: 10 to 100 nM
"O=C1CCC(N2Cc3cc(CNC(=O)C(F)(F)c4ccc(Cl)cc4)ccc3C2=O)C(=O)N1 (centres unmarked) [CC-90009, reference compound]",31.2 ± 9.1%,,,,,,,,,
"O=C1CCC(N2Cc3cc(CNC(=O)C4=Cc5cc(OC(F)(F)F)ccc5OC4)ccc3C2=O)C(=O)N1 (centres unmarked) [Compound A-10, N-((2-(2,6-Dioxopiperidin-3-yl)-1-oxoisoindolin-5-yl)methyl)-6-trifluoromethoxy-2H-chromene-3-carboxamide]",22.9 ± 12.6%,one third of that of CC-90009,longer than that of CC-90009,much higher than that of CC-90009,nearly four times that of CC-90009,nearly three times that of CC-90009,no significant weight loss,concentration-dependent,concentration-dependent,"peak ([2]; oral, compared to CC-90009): relatively high peak; time to peak ([2]; oral, compared to CC-90009): relatively small time to peak; tumor weight TGI ([3]; 15 mg/kg once daily oral gavage): 20.82%; tumor weight TGI ([3]; 30 mg/kg once daily oral gavage): 56.61%; tumor weight TGI [3, 10]: 59.76%; in vivo anti-tumor effect compared to CC-90009 ([3]; MV411 xenograft, oral gavage, vs CC-90009): significantly better than that of the clinical molecule CC-90009; TGI [4, 10]: 95.10%; TGI compared to CC-90009 and enzalutamide ([4]; 22RV1 xenograft, 60 mg/kg oral gavage): significantly better than those of the clinical molecule CC-90009 and the commercially available drug enzalutamide; time-dependent degradation of GSPT1 [8]: time-dependent"
"O=C1CCC(N2Cc3c(ccc(CNC(=O)C4=Cc5cc(OC(F)(F)F)ccc5OC4)c3F)C2=O)C(=O)N1 (centres unmarked) [Compound A-42, N-((2-(2,6-Dioxopiperidin-3-yl)-4-fluoro-1-oxoisoindolin-5-yl)methyl)-6-(trifluoromethoxy)-2H-chromene-3-carboxamide]",9.8 ± 1.5%,lower clearance rate,,,fourteen times,four times,no significant weight loss,,,"in vivo anti-tumor effect compared to MRT-2359 ([3]; MV411 xenograft, 60 mg/kg oral gavage, vs MRT-2359): comparable to that of the clinical molecule MRT-2359"
"O=C1CCC(N2Cc3cc(CNC(=O)C4=Cc5ccccc5OC4)ccc3C2=O)C(=O)N1 (centres unmarked) [Compound A-1, N-((2-(2,6-Dioxopiperidin-3-yl)-1-oxoisoindolin-5-yl)methyl)-2H-chromene-3-carboxamide]",19.3 ± 3.4%,less than that of the clinical drug CC-90009,close to that of CC-90009,greatly superior to those of CC-90009,greatly superior to those of CC-90009,,,concentration-dependent and time-dependent; also recorded: more significant than that of CC-90009,concentration-dependent and time-dependent; also recorded: more significant than that of CC-90009,RLM CL [9]: 3.75 µL/min/mg; RLM T1/2 [9]: 6.1657 h
